Test results: PMC8634879, “Design, Synthesis, and Biological Evaluation of Pyrano[2,3-c]-pyrazole–Based RalA Inhibitors Against Hepatocellular Carcinoma” (Frontiers in Chemistry, 2021)
Like-named read-outs stand apart in the source and are kept apart here.

Columns and labels:
[1] = system: Hep3B cells; assay: Cell proliferation assay (MTT), Hep3B; format: cell-based; conditions: Homo sapiens, average of at least three independent replicates ± SD, read-out: Anti-proliferative activities (IC50, μM) Hep3B
Description: (§1) The antibodies recognizing LC3, p62/SQSTM1, RalA, RalB, and GAPDH were purchased from Proteintech (Wuhan, China). HCC cell lines, including HepG2, Hep3B, Huh-7, and SMMC-7721, were obtained from the Chinese Center for Type Culture Collection (Wuhan, China) and cultured in DMEM (Dulbecco’s modified Eagle’s medium) with 10% FBS (fetal bovine serum) and streptomycin. Cytotoxicity assays were performed by using the MTT method as previously described.
(§2) The in vitro RalA/B bioactivity assays were performed following methods outlined in previous reports. ([Yan et al., 2016]; [Zhang et al., 2018]; [Walsh et al., 2019]; [Bum-Erdene et al., 2020]). In brief, the lysates of the test compound or vehicle-treated cells were cleared using cold centrifugation, and supernatants were collected. An RalBP1 solution was added to 96-well plates and incubated for 1–2 h, and then the plates were washed thrice using ELISA buffer. Next, cellular lysates were added, and samples were incubated overnight at 4°C. Then, ice-cold mouse anti-FLAG antibody was added, and samples were incubated for one more hour. After subsequent washing with ELISA buffer thrice, the HRP-conjugated anti-mouse antibody was added, and samples were incubated for another hour. Then, the HRP substrate was added. Antigen–antibody reactions were quenched by the addition of sulfuric acid (2 mol/L). Remaining RalA/B was detected by the OD450 values which were collected by using a plate reader. Cell proliferation assays, colony formation assays, apoptosis assays, GST pulldown, and Western blotting were used following methods outlined in our previous reports. ([Zhou et al., 2015]; [Zhang et al., 2016]; [Yang et al., 2017]; [He et al., 2019]). Autophagy levels and protein immunoblotting were used following the methods mentioned in our previous reports ([Pan et al., 2018]; [Wang et al., 2018]; [Hao et al., 2019]; [Wang et al., 2019]; [Peng et al., 2020]). Detailed experimental procedures are described in supporting materials.

[2] = system: HepG2 cells; assay: Cell proliferation assay (MTT), HepG2; format: cell-based; conditions: Homo sapiens
In short: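 HCC lines cultured in DMEM with 10% FBS and streptomycin; cytotoxicity measured by MTT method as previously described.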

[3] = system: SMMC-7721 cells; assay: Cell proliferation assay (MTT), SMMC-7721; format: cell-based; conditions: Homo sapiens, average of at least three independent replicates ± SD, read-out: Anti-proliferative activities (IC50, μM) SMMC-7721
Description: as §1, §2

[4] = target: T1, RalB (Homo sapiens, UniProt P11234); assay: ELISA-based RalB activity assay (RalBP1-coated plates, lysates of compound-treated cells); format: biochemical
T1 construct: expressed in transfected cells; host or cells: HepG2 (from b6; the methods paragraph names no cell line)
T1 sequence (P11234 1-203 limits assumed): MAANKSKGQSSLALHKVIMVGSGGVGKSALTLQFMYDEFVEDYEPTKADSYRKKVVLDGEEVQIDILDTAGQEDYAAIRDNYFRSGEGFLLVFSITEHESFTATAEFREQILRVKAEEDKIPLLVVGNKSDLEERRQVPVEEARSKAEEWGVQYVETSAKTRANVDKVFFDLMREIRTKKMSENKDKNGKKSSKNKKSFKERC
In short: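 Lysates of compound- or vehicle-treated cells, cleared by cold centrifugation, incubated overnight at 4°C on RalBP1-coated plates. Bound Ral detected with mouse anti-FLAG then HRP anti-mouse antibody; reaction stopped with 2 mol/L sulfuric acid and read at OD450.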

[5] = target: T2, RalA (Homo sapiens, UniProt P11233); assay: GST pulldown of activated RalA; format: cell-based
T2 construct: expressed in transfected cells; host or cells: HepG2 (from b6; the methods paragraph names no cell line)
T2 sequence (P11233 1-203 limits assumed): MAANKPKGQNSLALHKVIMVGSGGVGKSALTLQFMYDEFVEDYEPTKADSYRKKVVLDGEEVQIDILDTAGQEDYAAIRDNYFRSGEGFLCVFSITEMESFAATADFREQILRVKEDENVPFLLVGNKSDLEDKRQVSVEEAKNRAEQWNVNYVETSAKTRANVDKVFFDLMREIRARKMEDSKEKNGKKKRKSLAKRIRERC
Description: (§3) GST pulldown assays were performed to assess 4p RalA/B inhibitory capacities. […] Only activated RalA was suppressed after incubation with 0.5 μM of compound 4p (Figure 5A).
as §2

[6] = target: T1, RalB; assay: GST pulldown of activated RalB; format: cell-based; conditions: 2.0 μM
Description: as §3
as §2, with “([Zhou et al., 2015]; [Zhang et al., 2016]; [Yang et al., 2017]; [He et al., 2019]). Autophagy levels and protein immunoblotting were used following the methods mentioned in our previous reports ([Pan et al., 2018]; [Wang et al., 2018]; [Hao et al., 2019]; [Wang et al., 2019]; [Peng et al., 2020]). Detailed experimental procedures are described in supporting materials.” left out

COc1ccc(S(=O)(=O)NC2=C(C#N)C(c3ccc(C(F)(F)F)cc3)c3c(C)nn(-c4ccccc4)c3O2)cc1 (stereo not shown) [4p, N-(5-cyano-3-methyl-1-phenyl-4-(4-(trifluoromethyl)phenyl)-1,4-dihydropyrano[2,3-c]-pyrazol-6-yl)-4-methoxybenzenesulfonamide]
IC50 [1]: 2.71 ± 0.27 µM | IC50 ([2]; HepG2, Table 1, cell proliferation inhibition, read-out: IC50 (μM) HepG2): 2.28 ± 0.23 µM | IC50 ([2]; HepG2, Table 2, average of at least three independent replicates ± SD, read-out: Anti-proliferative activities (IC50, μM) HepG2): 2.28 ± 0.23 µM | IC50 [3]: 5.38 ± 0.37 µM | remaining activity at 1 µM ([4]; 1 μM compound, % control = active (RalBP1-bound) RalB remaining): 22% | IC50 ([4]; enzymatic inhibition, average of at least three independent replicates ± SD, read-out: Kinase activities (IC50, μM) RalB): 0.41 ± 0.07 µM | activated RalA protein expression level ([5]; 0.5 μM, only activated RalA, not RalB): suppressed | activated RalA protein expression level ([5]; 2.0 μM): significantly suppressed | total RalA expression ([5]; GST pulldown experiment): unchanged | activated RalB protein expression level [6]: significantly suppressed
